# From patent publication US5432165A, “Methods for the treatment of infection caused by Hepatitis B virus (HBV)” (priority 1992, dated 1995)
# “Also recorded” adds a separate entry of the source.
# Legend:
# [1] = month long TID dosing of FIAC; cited from earlier work
# [2] = Safety of oral FIAU in HIV-infected patients with chronic hepatitis B
# Procedure: Cohorts of five HIV-infected patients with chronic hepatitis B were studied at the tolerated doses. Plasma levels of FIAU and its major deiodinated metabolite FAU were determined two hours after dosing (peak levels) and just prior to dosing (trough levels) following the initial dose of FIAU and again on Days 3, 7, and 14 in order to make estimates of pharmacokinetic parameters including accumulation of drug or principal metabolite.
# (§1) This study is an open label, uncontrolled trial. […] Tolerated doses could be studied in an additional five patient cohort of chronic hepatitis B patients, who were potentially more at risk of side effects. A month of post-treatment follow-up was provided for the hepatitis cohorts due to the known propensity of this disease to "flare" after therapy.
# Additionally, all patients had to have completed the screening tests within four weeks of starting therapy, except for diagnostic HSV, VZV or CMV cultures. Those enrolled into the five patient cohorts of chronic hepatitis B patients had the same entry requirements, except that they had to have a history of chronic hepatitis B and be surface antigen positive. Liver function tests (AST, ALT, GGT, and bilirubin) could be Grade 2 or less at study entry for these patients. Patients receiving pentamidine aerosol for prophylaxis of recurrent Pneumocystis pneumonia could continue on this therapy during the study.
# (§2) Patients were evaluated clinically at the screening visit, and on Days 1, 3, 7, 10, and 14. The hepatitis patients were additionally evaluated on Days 21 and 42. The blood chemistry and urinalysis tests were repeated additionally on Days 2 and 5.
# (§3) Clinical evaluations consisted of a physical exam, which included a test of lower extremity muscle strength, medical history, systems review, grading of non-laboratory signs and symptoms of toxicity, and listing of concomitant medications. Additionally, at visits with clinical evaluations after Day 1, any adverse experiences were recorded.
# The Day 3 safety profile consisted of the clinical evaluation, hematology, serum biochemistry, urinalysis, stool guaiac tests and plasma samples for peak and trough levels of FIAU and its major metabolite FAU. On Day 7 patients underwent clinical evaluation, an ECG, peak and trough serum samples, T cell profile, and hematology, serum biochemistry, urinalysis, and stool guaiac tests. A clinical evaluation, hematology, serum biochemistry, and urinalysis tests were done on Day 10. These were repeated for the Day 14 evaluation with the addition of an ECG, T cell profile, stool guaiac, and peak and trough plasma samples. The post-treatment evaluations of the hepatitis patients on Days 21 and 42 consisted of a clinical evaluation and serum biochemistry tests.
# [3] = clinical
# Procedure: Tolerance to the oral formulation of FIAU was evaluated in relatively healthy HIV-infected patients with Karnofsky performance scores ≥80 and ≥200 CD4 cells/mm^3. Sequential cohorts of ten patients were evaluated in an open and uncontrolled study design. […] Tolerance was determined with concurrent anti-emetic therapy (prochlorperazine or metoclopramide hydrochloride) as necessary for each patient.
# as §1
# Although not formally randomized, qualified patients were to be consecutively enrolled without regard to their disease severity, expected tolerance, or potential benefit of the dose being evaluated. Tolerance to a dose was defined as seven or more of the ten patients in a cohort individually meeting predefined tolerance criteria including successful completion of therapy and limits on changes in particular signs, symptoms and laboratory tests. Tolerance was determined with concurrent anti-emetic therapy for those patients requiring it. Criteria and regimens for such therapy were predefined.
# Weight loss was restricted to less than 10% in the past three months and serum CPK was required to be within the normal range.
# as §2, §3
# At the screening visit a chest x-ray, electrocardiogram (ECG), HIV test, T cell profile (CD4 and CD8 counts), serum biochemistry, hematology, urinalysis and stool guaiac tests were obtained in addition to the clinical evaluation. Hematology tests consisted of hemoglobin, hematocrit, RBC, WBC and differential, platelet, reticulocyte count, MCV, MCHC and MCH. Urinalysis tests consisted of color, appearance, pH, specific gravity, bilirubin, protein, glucose, myoglobin, RBCs, WBCs, casts, crystals and bacteria. Serum biochemistry tests consisted of creatinine, uric acid, BUN, total bilirubin, AST, ALT, alkaline phosphatase, LDH, CPK, CPK-MB, glucose, total protein, albumin, globulin, calcium, phosphorus, potassium, sodium, chloride, bicarbonate and aldolase.
# The Baseline visit (Day 1) consisted of repeating the clinical evaluation, hematology, serum biochemistry, urinalysis, and stool guaiac tests, and T cell profile. Additionally at Baseline, archive plasma samples were taken. Plasma samples were taken two hours after each patient's first dose of FIAU (peak) and right before the second dose (trough). Thereafter, on Days 3, 7 and 14 additional peak and trough samples were obtained by taking the trough sample just before a patient took a dose of FIAU and the peak sample two hours later. These samples were analyzed by HPLC for levels of FIAU and FAU as low as 0.05 μg/ml for either compound.
# The Day 3 safety profile consisted of the clinical evaluation, hematology, serum biochemistry, urinalysis, stool guaiac tests and plasma samples for peak and trough levels of FIAU and its major metabolite FAU. On Day 7 patients underwent clinical evaluation, an ECG, peak and trough serum samples, T cell profile, and hematology, serum biochemistry, urinalysis, and stool guaiac tests. A clinical evaluation, hematology, serum biochemistry, and urinalysis tests were done on Day 10.
# [4] = 1.0 mg/kg-day, non-hepatitis patients, p>0.07
# [5] = 1.0 mg/kg-day, ten non-hepatitis patients
smiles,measurement,setting,value
"O=c1[nH]c(=O)n([C@@H]2O[C@H](CO)[C@@H](O)[C@@H]2F)cc1I [FIAU, 1-(2'-deoxy-2'-fluoro-β-D-arabinofuranosyl)-5-iodouracil]",accumulation in the plasma,[1],"neither FIAC, FIAU, or their metabolites accumulated in the plasma"
same,tolerance compared with 1.0 or 0.5 mg/kg-day,[2]; 0.1 mg/kg-day,much better tolerated
same,incidents of fatigue,"[2]; 0.1 mg/kg-day, four patients",only one incident of fatigue
same,tolerance of oral FIAU,"[2]; 1.0 mg/kg-day TID 14 days, six hepatitis patients",completed the 14 days of therapy with no untoward effects; also recorded: relatively well-tolerated; also recorded: All six patients completed the full course of therapy
same,"increase in AST and ALT values, Patient 406","[2]; 1.0 mg/kg-day, 28 days after completion of therapy",~5 fold
same,myositis,"[2]; 1.0 mg/kg-day, Patient 101, after dosing was completed",severe myositis; also recorded: One patient experienced an episode of myositis
same,average drop in lymphocytes,"[2]; 1.0 mg/kg-day, hepatitis patients",750 cells/mm^3
same,decrease in average CD4 count,"[2]; 1.0 mg/kg-day, hepatitis patients, Baseline to Day 14, p=0.03",40%
same,average CD4 count at Day 14,"[2]; 1.0 mg/kg-day, hepatitis patients, 691 at Baseline",415
same,average WBC at end of therapy,"[2]; 1.0 mg/kg-day, hepatitis patients, baseline average 4,690, p=0.0085","3,430"
same,average drop in neutrophils,"[2]; 1.0 mg/kg-day, hepatitis patients, not significant",approximately 300 cell/mm^3
same,decrease in lymphocytes,"[2]; 1.0 mg/kg-day, hepatitis patients, p=0.00125",39%
same,significance of increases in liver enzymes during therapy,"[2]; 1.0 mg/kg-day, hepatitis patients, p>0.1",increases in liver enzymes were not
same,patients with mild to moderate nausea,"[2]; 1.0 mg/kg-day, six hepatitis patients",Four patients reported mild to moderate nausea
same,"change of AST and ALT values, Patient 401","[2]; 1.0 mg/kg-day, very end of therapy, back below Baseline after a month of follow-up",doubling
same,toxicity overall,"[2]; doses of 0.1 to 1.0 mg/kg-day, HIV-infected patients with chronic hepatitis B",have not produced unacceptable toxicity
same,incidence of fatigue,[2]; the other groups (1.0 and 0.5 mg/kg-day),40-50%
same,tolerance of oral FIAU,"[3]; 1.0 mg/kg-day TID 14 days, HIV-infected patients (ten without chronic hepatitis B)",adequately tolerated
same,average AST value at end of therapy,"[3]; 1.0 mg/kg-day, non-hepatitis patients, baseline 23.4, p≤0.02",29.6
same,average ALT value at end of therapy,"[3]; 1.0 mg/kg-day, non-hepatitis patients, baseline 27.1, p≤0.02",42.3
same,average WBC count at end of therapy,"[3]; 1.0 mg/kg-day, non-hepatitis patients, baseline average 5,480, p=0.0746","4,920 cells/mm^3"
same,average loss of CD4 cells,"[3]; 1.0 mg/kg-day, non-hepatitis patients, non-significant",64 cells/mm^3
same,decrease in lymphocytes,[3]; [4],about 300 cells/mm^3
same,decrease in neutrophils,[3]; [4],about 300 cells/mm^3
same,patients requiring anti-emetic therapy,[3]; [5],four required anti-emetic therapy
same,patients with mild to moderate headache,[3]; [5],Five patients complained of mild to moderate headache
same,patients with mild to moderate nausea,[3]; [5],Eight patients experienced mild to moderate nausea
same,tolerance of oral FIAU,"[3]; 1.7 mg/kg-day, three non-hepatitis patients",not tolerated; also recorded: All three discontinued the study after two to eight days due to severe fatigue
same,MTD at 336 h,"[3]; human, in vivo, po, maximum tolerated dose of oral FIAU, HIV-infected population, TID for two weeks",≥ 1 mg/kg/day
